As a reminder, the EC50 is the concentration needed to bring the measured effect to its halfway point. What is called IC50 is the concentration that gives 50% inhibition. Low readings indicate inhibition by little substance, high ones a need for much substance.

For test [1], the system named is HSV-1 strain F or KOS. The experiment in a line: Inhibition of herpes simplex virus (HSV-1) replication in cell culture (BHK-21 cells, glycoprotein C ELISA). Type of test: cell-based. The gist of the method:
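Replication readout: ELISA for HSV-1 late glycoprotein C (mAb C11, peroxidase-OPD, 450 nm) on glutaraldehyde-fixed cells. Monolayers (~50,000 cells/well) were infected with strain F or KOS (MOI 0.05 PFU/cell), then incubated 24 h at 37° with compound in 2% FBS α-MEM. EC50 derived from % inhibition.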

Test [2] addresses T1, HSV-1 helicase-primase (Human herpesvirus 1, UniProt P10189+P10236).
T1 construct: made in house; host or cells: Sf21 insect cells triply infected with recombinant baculoviruses (UL5, UL8, UL52)
The experiment in a line: HSV-1 DNA-dependent ATPase assay (inhibition of HSV-1 helicase-primase). Type of test: biochemical. The gist of the method: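 ATP hydrolysis was measured as inorganic phosphate (malachite green/molybdate, 650 nm) after 20 min at 34°. Reaction: 3 μg/mL purified Sf21-expressed UL5/UL8/UL52 helicase-primase, 25 μM single-stranded M13 DNA hybridized to 68-mer, 4 mM ATP, pH 7.5 HEPES buffer, 3.3% DMSO. Net absorbance change with and without inhibitor gave DNA-dependent ATPase activity.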

Test [3] concerns HCMV (strain AD169). The experiment in a line: Inhibition of HCMV replication, ELISA assay (Hs-68 cells). Type of test: cell-based, Human Cytomegalovirus (HCMV). To be noted: read-out: ELISA CMV EC50. As to the method:
C) Inhibition of Human Cytomegalovirus (HCMV) Replication
The effect of compounds on the replication of HCMV has been measured by using an ELISA-based assay (ELISA) and a plaque reduction assay (PRA).
Hs-68 cells (ATCC # CRL 1635) were seeded in 96 well microtiter plates at 10,000 cells/well in 100 μL of DMEM medium (Gibco Canada Inc.) supplemented with 10% fetal bovine serum (FBS, Gibco Canada Inc.). The plates were incubated for 3 days at 37° to allow the cells to reach 80-90% confluency prior to the assay.
The medium was removed from wells by aspiration. The cells then were infected at a multiplicity of infection (MOI) of 0.01 PFU/cell with 50 μL of HCMV (strain AD169, ATCC VR-538) in DMEM medium supplemented with 5% heat inactivated FBS (assay medium). The virus was allowed to adsorb to cells for 2 h at 37°. Following viral adsorption, the medium was removed from the wells by aspiration. The cells were washed twice with 200 μL of assay medium to remove unabsorbed virus. The cells were then incubated with or without 100 μL of appropriate concentrations of test reagent in assay medium. After 8 days of incubation at 37°, the extent of viral replication was determined by an ELISA assay which detects the late structural protein p28 of HCMV.
Eight days after infection, the medium was aspirated from the wells. Non-specific binding sites were blocked by adding 200 μL of phosphate buffered saline containing 1% (w/v) bovine serum albumin (blocking buffer) to each well and incubating the plates for 30 min at room temperature. After removal of the blocking buffer by aspiration, the cells were fixed with 100 μL of cold ethanol-acetone solution (95:5) per well. The plates were placed at -20° for 30 min. The plates were washed 4 times with phosphate buffered saline containing 0.05% (v/v) polyoxyethylene sorbitan monolaurate (Tween®). Thereafter, 100 μL of mAb UL99 (Advanced Biotechnologies Inc., #13-130-100) recognizing HCMV protein p28 was added to each wells and plates were incubated for 2 h at room temperature. The plates were washed four times with 200 μL of the above-noted phosphate buffered saline/Tween-20® solution. The cells were then incubated with 100 μL of sheep anti-mouse IgGγ horseradish peroxidase conjugated for 2 h at room temperature. The plates were then washed four times with 200 μL of above-noted phosphate buffered saline/Tween-20® solution. Thereafter, 100 μL of ortho phenylenediamine dihydrochloride (OPD, Gibco Canada Inc.) solution was added to each well and the plates were agitated on a microplate shaker for 30 min in the dark. Color development was monitored at 450 nm using a microplate spectrophotometer.
The SAS program was used to calculate the % inhibition of viral replication and to generate EC50 values.
The EC50 values obtained according to this assay method for certain thiazolylphenyl derivatives of this invention are listed in the following tables under the heading ELISA CMV.
(In general: An ELISA detects its analyte on a solid surface through an enzyme-linked reagent.)

Setting [4] is: Human alphaherpesvirus 1, BHK-21, Group 1 Table 5 entries.
Where [5] appears, read: Human betaherpesvirus 5, AD169, Hs68, Group 1 Table 5 entries.
Setting [6] is: Human alphaherpesvirus 1, BHK-21, Group 1 Table 1 entries.
The mark [7] stands for this setting: Human betaherpesvirus 5, AD169, Hs68, Group 1 Table 1 entries.
The mark [8] stands for this setting: Human alphaherpesvirus 1, BHK-21, Group 1 Table 3 entries.
The mark [9] stands for this setting: Human betaherpesvirus 5, AD169, Hs68, Group 1 Table 3 entries.

Read-outs that look alike come from different tables or passages of the source.

T1 sequence (P10192 whole entry): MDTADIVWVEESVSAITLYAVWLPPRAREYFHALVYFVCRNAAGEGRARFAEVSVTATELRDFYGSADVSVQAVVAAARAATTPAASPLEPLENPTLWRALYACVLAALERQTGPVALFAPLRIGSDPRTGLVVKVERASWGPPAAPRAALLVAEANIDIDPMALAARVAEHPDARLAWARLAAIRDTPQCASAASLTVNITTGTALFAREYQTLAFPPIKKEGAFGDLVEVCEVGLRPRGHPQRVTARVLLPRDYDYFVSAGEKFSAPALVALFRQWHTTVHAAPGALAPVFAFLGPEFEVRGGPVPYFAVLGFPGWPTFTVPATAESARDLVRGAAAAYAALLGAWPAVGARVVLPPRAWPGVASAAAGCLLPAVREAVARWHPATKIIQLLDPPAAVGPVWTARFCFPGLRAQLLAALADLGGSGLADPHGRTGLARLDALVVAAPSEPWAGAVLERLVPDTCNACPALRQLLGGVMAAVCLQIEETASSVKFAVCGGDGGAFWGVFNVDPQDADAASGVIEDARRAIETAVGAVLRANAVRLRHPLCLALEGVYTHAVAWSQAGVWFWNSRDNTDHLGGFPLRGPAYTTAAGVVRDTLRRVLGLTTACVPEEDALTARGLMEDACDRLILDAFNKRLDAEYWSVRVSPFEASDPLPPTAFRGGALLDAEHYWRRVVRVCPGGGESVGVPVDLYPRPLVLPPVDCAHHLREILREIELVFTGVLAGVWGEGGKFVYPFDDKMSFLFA
T1 sequence (P10236 whole entry): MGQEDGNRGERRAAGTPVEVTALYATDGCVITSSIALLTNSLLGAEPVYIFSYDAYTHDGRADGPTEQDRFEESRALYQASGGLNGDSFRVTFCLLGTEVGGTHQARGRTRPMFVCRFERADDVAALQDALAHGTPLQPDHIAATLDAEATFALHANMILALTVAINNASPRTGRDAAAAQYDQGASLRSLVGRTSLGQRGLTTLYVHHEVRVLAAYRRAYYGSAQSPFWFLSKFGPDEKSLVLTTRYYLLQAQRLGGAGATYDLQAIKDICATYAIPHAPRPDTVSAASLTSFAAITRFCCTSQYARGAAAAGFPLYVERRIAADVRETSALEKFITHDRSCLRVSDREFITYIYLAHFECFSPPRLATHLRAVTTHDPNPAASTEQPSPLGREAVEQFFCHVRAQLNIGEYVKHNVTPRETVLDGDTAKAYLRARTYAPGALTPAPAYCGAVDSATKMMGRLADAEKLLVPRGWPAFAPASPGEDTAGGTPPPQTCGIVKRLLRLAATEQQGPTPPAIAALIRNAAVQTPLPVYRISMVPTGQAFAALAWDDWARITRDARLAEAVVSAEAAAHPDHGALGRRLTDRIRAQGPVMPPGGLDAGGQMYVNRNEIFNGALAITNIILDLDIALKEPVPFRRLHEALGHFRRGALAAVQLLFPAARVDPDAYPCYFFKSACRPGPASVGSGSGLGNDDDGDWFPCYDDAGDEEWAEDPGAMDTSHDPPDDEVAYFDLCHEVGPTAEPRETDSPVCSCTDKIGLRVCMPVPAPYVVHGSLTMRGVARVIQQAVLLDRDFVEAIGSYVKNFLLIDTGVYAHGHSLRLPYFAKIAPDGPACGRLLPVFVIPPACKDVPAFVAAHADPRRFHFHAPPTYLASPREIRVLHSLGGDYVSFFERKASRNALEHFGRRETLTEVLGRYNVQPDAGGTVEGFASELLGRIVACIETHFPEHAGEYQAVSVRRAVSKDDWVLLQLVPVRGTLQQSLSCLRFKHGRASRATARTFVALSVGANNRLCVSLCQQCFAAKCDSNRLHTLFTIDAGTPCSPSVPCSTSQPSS
T1 sequence (P10189 whole entry): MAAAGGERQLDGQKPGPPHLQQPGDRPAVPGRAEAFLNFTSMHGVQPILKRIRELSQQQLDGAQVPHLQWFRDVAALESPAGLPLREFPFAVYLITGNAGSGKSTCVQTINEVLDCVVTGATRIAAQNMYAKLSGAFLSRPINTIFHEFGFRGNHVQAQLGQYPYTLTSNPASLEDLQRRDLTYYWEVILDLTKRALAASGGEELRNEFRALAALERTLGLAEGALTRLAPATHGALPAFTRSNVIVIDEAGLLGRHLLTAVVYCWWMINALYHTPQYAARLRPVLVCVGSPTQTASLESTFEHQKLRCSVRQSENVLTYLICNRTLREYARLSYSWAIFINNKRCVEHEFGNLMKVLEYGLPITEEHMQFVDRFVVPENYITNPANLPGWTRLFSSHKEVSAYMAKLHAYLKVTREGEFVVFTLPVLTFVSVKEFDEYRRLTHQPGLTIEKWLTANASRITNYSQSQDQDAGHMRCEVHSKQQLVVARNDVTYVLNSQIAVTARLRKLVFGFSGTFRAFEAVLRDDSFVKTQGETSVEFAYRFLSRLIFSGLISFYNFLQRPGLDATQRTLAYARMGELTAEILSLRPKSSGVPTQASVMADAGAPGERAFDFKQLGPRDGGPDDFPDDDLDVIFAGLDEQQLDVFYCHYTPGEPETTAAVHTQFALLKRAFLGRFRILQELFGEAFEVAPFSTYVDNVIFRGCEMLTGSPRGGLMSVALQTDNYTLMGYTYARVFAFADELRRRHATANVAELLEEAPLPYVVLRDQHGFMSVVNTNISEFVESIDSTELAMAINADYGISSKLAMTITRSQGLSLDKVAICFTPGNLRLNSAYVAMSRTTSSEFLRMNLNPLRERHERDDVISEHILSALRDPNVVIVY

For the compound `C[C@@H](C(=O)Nc1ccc(-c2csc(N)n2)cc1)N(Cc1ccccc1)C(=O)OC(C)(C)C` [Example 16], the EC50 is 79 nM in test [1] (setting [4]) and 2800 nM in test [3] (setting [5]). The same compound gave an IC50 in test [2] (Group 1 Table 5 entries) of 460 nM.
In the case of `COC(=O)N(CC(=O)Nc1ccc(-c2csc(N)n2)cc1)Cc1ccccc1` [Example 87], the EC50 came out at 1100 nM in test [1] (setting [6]) and 18000 nM in test [3] (setting [7]). The compound also showed an IC50 in test [2] (Group 1 Table 1 entries) of 2800 nM.
As to `Cc1cccc(C)c1C(=O)N(CC(=O)Nc1ccc(-c2csc(N)n2)cc1)Cc1ccccc1` [Example 25], the EC50 came out at 11 nM in test [1] (setting [6]) and 4400 nM in test [3] (setting [7]). Moreover, the IC50 in test [2] (Group 1 Table 1 entries) was found to be 47 nM.
For the compound `CN(C)c1nc(-c2ccc(NC(=O)CNCc3ccccc3)cc2)cs1` [Example 12], the EC50 in test [1] (setting [8]) was 21000 nM; in test [3] (setting [9]), greater than 79000 nM. This compound registered an IC50 in test [2] (Group 1 Table 3 entries) greater than 50000 nM.
As to `CN(C)S(=O)(=O)N(CC(=O)Nc1ccc(-c2csc(N)n2)cc1)Cc1ccccc1` [Example 106], the EC50 was 160 nM in test [1] (setting [6]) and greater than 6000 nM in test [3] (setting [7]). The IC50 in test [2] (Group 1 Table 1 entries) stood at 1000 nM.
`Nc1nc(-c2ccc(NC(=O)CNCc3cccs3)cc2)cs1` [Example 13]: the values for the concentration giving a half-maximal response (EC50) in test [1] (setting [6]) and in test [3] (setting [7]) were 3700 nM and 8300 nM, respectively. For the same compound, in test [2] (Group 1 Table 1 entries), inhibition was half-maximal at 3800 nM (IC50).
As for `CC(=O)N[C@@H](Cc1ccccc1)C(=O)Nc1ccc(-c2csc(N)n2)cc1` [Example 21], the EC50 in test [1] (setting [4]) was found to be 4700 nM; in test [3] (setting [5]), 4400 nM. It took 3100 nM to reach half-maximal inhibition in test [2] (Group 1 Table 5 entries) (IC50).
As to `C[C@H](NCc1ccccc1)C(=O)Nc1ccc(-c2csc(N)n2)cc1` [Example 12], the results for the EC50 in test [1] (setting [4]) and in test [3] (setting [5]) were 820 nM and 4100 nM, respectively. The same compound came in with an IC50 in test [2] (Group 1 Table 5 entries) of 1300 nM.
For `CC(C)(C)OC(=O)N[C@@H](CC1CCCCC1)C(=O)Nc1ccc(-c2csc(N)n2)cc1` [Example 24], in that order: 43 nM, 8100 nM and 17 nM.
Turning to `CC(C)CN(CC(=O)Nc1ccc(-c2csc(N)n2)cc1)C(=O)OCc1ccccc1` [Example 110], the EC50 in test [1] (setting [6]) is 1600 nM; in test [3] (setting [7]) it was greater than 40000 nM. For the same compound, in test [2] (Group 1 Table 1 entries), the IC50 is 3200 nM.
The corresponding values for `Nc1nc(-c2ccc(NC(=O)CN(CC3CCCCC3)C(=O)CC3CCCCC3)cc2)cs1` [Example 76] are 160 nM, 25000 nM and 80 nM.
As for `CN(C)c1nc(-c2ccc(NC(=O)CN(Cc3ccccc3)C(=O)c3ccncc3)cc2)cs1` [Example 14], the EC50 was determined as 500 nM in test [1] (setting [8]) and 20000 nM in test [3] (setting [9]). In test [2] (Group 1 Table 3 entries), the half-inhibitory concentration (IC50) was greater than 50000 nM.
`CC(C)(C)OC(=O)N1CCC(C(=O)N(CC(=O)Nc2ccc(-c3csc(N)n3)cc2)Cc2ccccc2)CC1` [Example 40]: the EC50 in test [1] (setting [6]) was found to be 700 nM; in test [3] (setting [7]), 25000 nM. Also, in test [2] (Group 1 Table 1 entries), it took 1700 nM to reach half-maximal inhibition (IC50).

(Values after US6288091A, “Antiherpes virus compounds and methods for their preparation and use” (Boehringer Ingelheim Ltd., priority 1999, dated 2001).)
